“Also recorded” adds a separate entry of the source.
Tests used:
[1] = test system: Pten^pc−/−; Zbtb7a^pc−/− prostate tumors; assay: In vivo drug and antibody treatment of Pten^pc−/−; Zbtb7a^pc−/− mice (MRI, flow cytometry, histology, western blot, qRT-PCR); design: species or system mouse
Method: (§1) Mice were allocated at random to experimental groups and studies were performed in an unblended manner. For treatment with the CXCR2 antagonist, SB225002 (Cayman Chemical #13336) was dissolved in DMSO (10 mg/ml) and diluted in vehicle (0.9% NaCl, 0.3% Tween 80) for in vivo administration. Mice (4 months of age) were treated daily for 10 days by intraperitoneal injection (5 mg/kg) and prostate tumor tissue (anterior lobes) was subjected to Flow Cytometry and histological analysis. For MRI analysis, mice (4 months of age) were treated daily for 21 days (Pten^pc-/-; Zbtb7a^pc-/-), for 14 days (Pten^pc-/-; Trp53^pc-/-) or for 14 days (Pten^pc-/-; Pml^pc-/-) by intraperitoneal injection (5 mg/kg). For depletion of Gr-1+/CD11b+ cells, Ly6G-depletion antibody (1A8, BioXcell) and control Rat IgG2a antibody (BioXcell) were diluted in phosphate-buffered saline (PBS) for in vivo administration. Mice (4 months of age) were treated every other day for 10 days by intraperitoneal injection (200-300 μg/mouse). InVivoMAb anti-mouse Ly6G/Ly6C (Gr-1) antibody, clone RB6-8C5 (BE0075, BioXcell), and control Rat IgG2b antibody (BE0090, BioXcell) were diluted in PBS and Pten^pc-/-; Trp53^pc-/- mice were treated every other day for 14 days by intraperitoneal injection (200 μg/mouse). For neutralization of CXCL5, anti-Mouse CXCL5 antibody (Leinco Technologies) and control Rat IgG2a antibody (BioXcell) were diluted in PBS and injected every other day for 21 days by intraperitoneal injection (20 μg/mouse). Tumor volume quantification was performed by using VivoQuant and Image J software. All mouse prostate MRI imaging analysis was performed at Small Animal Imaging Core at BIDMC and acquired on an […] Model M2 1T tabletop scanner. For western blotting, cell lysates were prepared by homogenizing tumor tissue with NP40 Buffer (Boston Bioproducts) supplemented with protease (Roche) and HALT phosphatase inhibitor cocktails (Thermo Scientific) and subsequently subjected to SDS-Gel separation (Invitrogen) and western blotting. The following antibodies were used for western blotting: […] (AC-74; Sigma), CXCL5 (R & D Systems #AF433), pIRAK4 (Cell Signaling Technology #11927S), IRAK4 (Cell Signaling Technology #4363P), IκBα (Cell Signaling Technology #4812S), Zbtb7a (hamster anti-Zbtb7a clone 13E9), PTEN (Cell Signaling Technology #9559S), p53 (Cell Signaling Technology #2524S), p21 (Santa Cruz Biotechnology sc-6246) and HSP90 (BD Biosciences BDB610419). Western blots were quantified using Image J software. For immunohistochemistry, tissues and organoids were fixed in 4% paraformaldehyde and embedded in paraffin in accordance with standard procedures. Embedding and hematoxylin and eosin staining of sections were performed by the Histology Core at BIDMC and analyzed by a pathologist. Sections were stained with anti-LY6G (BioLegend #127603), anti-CD45R (Abcam #ab64100), anti-CD3 (Abcam #ab5690), anti-beta Catenin (Abcam #32572), anti-phospho ERK (Cell Signaling Technology #4376), anti-phospho AKT Ser473 (Cell Signaling Technology #4060) and anti-Ki67 (Thermo Scientific #RM-9106) according to manufacturer's recommendations. For Flow Cytometry, spleen and lymph node single cell suspensions were prepared by mashing the tissue in 2% FBS/PBS. Tumor and control prostate tissue (from anterior lobes) single cell suspension was prepared by mincing the tumor and digestion with Collagenase Type I (Life Technologies #17018029) in 10% DMEM (GIBCO) for 1 hr at 37° C. […]

[2] = test system: Pten^pc−/−; Trp53^pc−/− prostate tumors; assay: In vivo drug and antibody treatment of Pten^pc−/−; Trp53^pc−/− mice (MRI, flow cytometry, histology); design: species or system mouse
Method: as §1, with “pathologist.” for “pathologist. Sections were stained with anti-LY6G (BioLegend #127603), anti-CD45R (Abcam #ab64100), anti-CD3 (Abcam #ab5690), anti-beta Catenin (Abcam #32572), anti-phospho ERK (Cell Signaling Technology #4376), anti-phospho AKT Ser473 (Cell Signaling Technology #4060) and anti-Ki67 (Thermo Scientific #RM-9106) according to manufacturer's recommendations. For Flow Cytometry, spleen and lymph node single cell suspensions were prepared by mashing the tissue in 2% FBS/PBS. Tumor and control prostate tissue (from anterior lobes) single cell suspension was prepared by mincing the tumor and digestion with Collagenase Type I (Life Technologies #17018029) in 10% DMEM (GIBCO) for 1 hr at 37° C.”

[3] = Trp53^pc−/− prostate tumors after treatment

## O=C(Nc1ccc([N+](=O)[O-])cc1O)Nc1ccccc1Br [SB225002]
[1]; Zbtb7a^pc−/− mice, intraperitoneal injection, vs vehicle
  tumor growth (tumor volume by MRI): significantly suppressed the tumor growth; also recorded: significant inhibition of tumor growth
[1]; Zbtb7a^pc−/− prostate tumors after treatment
  intra-tumoral Gr-1+/CD11b+ cells (flow cytometry): decrease of Gr-1+/CD11b+ cells
[1]; Zbtb7a^pc−/− tumors, anterior prostate lobes
  tumor burden (histological analysis): reduced tumor burden; also recorded: significantly diminished tumor involvement
[1]; Zbtb7a^pc−/− tumors, normalized with β-actin, vs vehicle
  IκBα protein level (western blot): increased IκBα protein levels
[1]; Zbtb7a^pc−/− tumors, vs vehicle
  expression of CXCL5 in the prostate tumors: elevated expression of CXCL5
[2]; Trp53^pc−/− mice, intraperitoneal injection, vs vehicle or control IgG
  tumor growth (tumor volume by MRI): significantly suppressed the tumor growth; also recorded: significant inhibition of tumor growth
[2]; [3]
  Treg cells (CD4+/FoxP3+) in tumor (flow cytometry): less Foxp3+ cells; also recorded: less Treg cells
  intra-tumoral Gr-1+/CD11b+ cells (flow cytometry): decrease of Gr-1+/CD11b+ cells
[2]; Trp53^pc−/− tumors, anterior prostate lobes
  tumor burden (histological analysis): reduced tumor burden; also recorded: significantly diminished tumor involvement
